Test results published in PMC3513945 (Nature chemical biology, 2012).

Experiments:
[1] = target: T1, DAGLβ (Mus musculus, UniProt Q91WC9); assay: competitive ABPP on DAGLβ-transfected HEK293T proteome; type: biochemical
T1 sequence (Q91WC9 1-669): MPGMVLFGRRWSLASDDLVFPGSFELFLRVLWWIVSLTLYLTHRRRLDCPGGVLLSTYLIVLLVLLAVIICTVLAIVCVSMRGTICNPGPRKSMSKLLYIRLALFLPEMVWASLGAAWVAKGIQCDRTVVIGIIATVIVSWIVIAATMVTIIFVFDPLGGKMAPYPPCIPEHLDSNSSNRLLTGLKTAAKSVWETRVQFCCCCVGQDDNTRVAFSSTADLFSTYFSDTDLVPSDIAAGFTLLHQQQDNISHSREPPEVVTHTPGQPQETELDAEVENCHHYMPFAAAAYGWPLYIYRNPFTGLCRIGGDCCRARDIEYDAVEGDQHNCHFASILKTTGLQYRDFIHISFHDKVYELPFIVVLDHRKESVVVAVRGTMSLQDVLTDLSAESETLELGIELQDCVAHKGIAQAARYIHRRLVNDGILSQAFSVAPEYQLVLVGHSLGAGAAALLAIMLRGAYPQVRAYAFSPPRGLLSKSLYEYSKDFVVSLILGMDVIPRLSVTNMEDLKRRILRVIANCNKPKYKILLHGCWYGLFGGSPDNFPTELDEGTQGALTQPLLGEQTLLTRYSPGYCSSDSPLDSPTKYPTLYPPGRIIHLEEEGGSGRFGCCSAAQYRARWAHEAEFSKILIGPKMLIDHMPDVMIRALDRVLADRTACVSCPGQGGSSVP

[2] = target: T2, ABHD6 (Mus musculus, UniProt Q8R2Y0); assay: competitive ABPP in mouse brain proteome; type: biochemical
T2 sequence (Q8R2Y0 1-336): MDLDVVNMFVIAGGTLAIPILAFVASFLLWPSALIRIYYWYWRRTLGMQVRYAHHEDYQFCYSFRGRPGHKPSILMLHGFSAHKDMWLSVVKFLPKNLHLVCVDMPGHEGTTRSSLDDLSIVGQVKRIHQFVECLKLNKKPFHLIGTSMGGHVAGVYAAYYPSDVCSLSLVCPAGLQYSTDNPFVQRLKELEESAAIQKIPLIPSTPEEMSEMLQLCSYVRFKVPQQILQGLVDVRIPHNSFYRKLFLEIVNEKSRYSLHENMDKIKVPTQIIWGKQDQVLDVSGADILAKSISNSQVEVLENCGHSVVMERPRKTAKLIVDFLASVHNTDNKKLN

[3] = target: T3, human DAGLβ (Homo sapiens, UniProt Q8NCG7); assay: in vitro inhibition of human DAGLβ activity; type: cell-based
T3 sequence (Q8NCG7 1-672): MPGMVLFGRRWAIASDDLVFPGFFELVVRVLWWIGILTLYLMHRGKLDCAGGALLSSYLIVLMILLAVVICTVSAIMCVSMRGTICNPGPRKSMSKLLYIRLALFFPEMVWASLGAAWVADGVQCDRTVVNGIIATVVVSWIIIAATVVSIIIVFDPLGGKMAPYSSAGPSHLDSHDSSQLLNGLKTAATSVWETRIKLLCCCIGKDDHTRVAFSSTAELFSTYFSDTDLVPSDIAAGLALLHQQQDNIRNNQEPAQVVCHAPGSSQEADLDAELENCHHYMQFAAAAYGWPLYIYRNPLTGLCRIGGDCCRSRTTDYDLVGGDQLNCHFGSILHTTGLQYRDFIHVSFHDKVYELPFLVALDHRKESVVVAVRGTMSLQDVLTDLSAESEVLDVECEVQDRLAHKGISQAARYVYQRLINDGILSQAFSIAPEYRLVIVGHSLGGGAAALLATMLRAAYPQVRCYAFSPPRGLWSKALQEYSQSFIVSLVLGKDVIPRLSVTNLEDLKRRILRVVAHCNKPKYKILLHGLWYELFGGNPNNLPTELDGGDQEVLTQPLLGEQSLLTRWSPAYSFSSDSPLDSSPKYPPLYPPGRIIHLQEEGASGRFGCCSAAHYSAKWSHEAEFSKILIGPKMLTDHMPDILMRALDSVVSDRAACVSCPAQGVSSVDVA

[4] = target: T1, DAGLβ; assay: inhibition of DAGLβ in transfected HEK293T lysate; type: biochemical

Row | IC50 [4] [nM] | Compound | IC50 [1] [nM] | IC50 [2] [nM] | IC50 [3] [nM]
1 | – | O=C(N1CCCCC1Cc1ccccc1)n1cc(-c2ccc(-c3ccccc3)cc2)nn1 (stereo not shown) [compound 32, KT109] | 42 | 16 | 580
2 | 30 | O=C(N1CCCCC1Cc1ccccc1)n1cc(-c2ccc(Br)cc2)nn1 (stereo not shown) [compound 31, KT116] | – | – | –
